Test system: B16 cells gene expression
Assay: RNA-Seq (DEGs, GSEA, heatmaps) of B16 cells
Details: B16 cells

How did the “NES: Fat digestion and absorption” value (GSEA KEGG mmu04975, KTC 0.2μM) turn out when `COc1cc(N)cc2c1nc(C(F)F)n2-c1nc(N2CCCOCC2)nc(N2CCOCC2)n1` [KTC1101, 2-(difluoromethyl)-4-methoxy-1-(4-morpholino-6-(1,4-oxazepan-4-yl)-1,3,5-triazin-2-yl)-1H-benzo[d]imidazol-6-amine] was run?
Its value is -1.65.

And the “enrichmentScore: Fat digestion and absorption” value (GSEA KEGG mmu04975, KTC 0.2μM)?
Its value is -0.5488.

What about the “NES: Bile secretion” value (GSEA KEGG mmu04976, KTC 0.2μM) of the same compound?
Its value is 1.51.

What about the “enrichmentScore: Bile secretion” value (GSEA KEGG mmu04976, KTC 0.2μM) of the same compound?
The value was 0.4976.

And the “NES: Mineral absorption” value (GSEA KEGG mmu04978, KTC 0.2μM)?
The value was -1.388.

And the “enrichmentScore: Mineral absorption” value (GSEA KEGG mmu04978, KTC 0.2μM)?
Its value is -0.4138.

What about the “NES: Cholesterol metabolism” value (GSEA KEGG mmu04979, KTC 0.2μM) of the same compound?
The value was -1.456.

And the “enrichmentScore: Cholesterol metabolism” value (GSEA KEGG mmu04979, KTC 0.2μM)?
The value was -0.4442.

What about the “NES: Alzheimer disease” value (GSEA KEGG mmu05010, KTC 0.2μM) of the same compound?
The value was -1.608.

And the “enrichmentScore: Alzheimer disease” value (GSEA KEGG mmu05010, KTC 0.2μM)?
Its value is -0.3072.

And the “NES: Parkinson disease” value (GSEA KEGG mmu05012, KTC 0.2μM)?
Its value is -1.964.

And the “enrichmentScore: Parkinson disease” value (GSEA KEGG mmu05012, KTC 0.2μM)?
Its value is -0.3949.

And the “NES: Amyotrophic lateral sclerosis” value (GSEA KEGG mmu05014, KTC 0.2μM)?
Its value is -1.71.

What about the “enrichmentScore: Amyotrophic lateral sclerosis” value (GSEA KEGG mmu05014, KTC 0.2μM) of the same compound?
Its value is -0.329.

And the “NES: Huntington disease” value (GSEA KEGG mmu05016, KTC 0.2μM)?
Its value is -1.539.

And the “enrichmentScore: Huntington disease” value (GSEA KEGG mmu05016, KTC 0.2μM)?
The value was -0.3057.

What about the “NES: Prion disease” value (GSEA KEGG mmu05020, KTC 0.2μM) of the same compound?
Its value is -1.774.

What about the “enrichmentScore: Prion disease” value (GSEA KEGG mmu05020, KTC 0.2μM) of the same compound?
Its value is -0.3631.

And the “NES: Pathways of neurodegeneration - multiple diseases” value (GSEA KEGG mmu05022, KTC 0.2μM)?
Its value is -1.25.

What about the “enrichmentScore: Pathways of neurodegeneration - multiple diseases” value (GSEA KEGG mmu05022, KTC 0.2μM) of the same compound?
Its value is -0.2359.

And the “NES: Morphine addiction” value (GSEA KEGG mmu05032, KTC 0.2μM)?
Its value is 2.084.

What about the “enrichmentScore: Morphine addiction” value (GSEA KEGG mmu05032, KTC 0.2μM) of the same compound?
Its value is 0.6804.

What about the “NES: Leishmaniasis” value (GSEA KEGG mmu05140, KTC 0.2μM) of the same compound?
The value was 1.636.

What about the “enrichmentScore: Leishmaniasis” value (GSEA KEGG mmu05140, KTC 0.2μM) of the same compound?
The value was 0.5458.

What about the “NES: Chagas disease” value (GSEA KEGG mmu05142, KTC 0.2μM) of the same compound?
The value was 1.762.

And the “enrichmentScore: Chagas disease” value (GSEA KEGG mmu05142, KTC 0.2μM)?
Its value is 0.5294.

And the “NES: Amoebiasis” value (GSEA KEGG mmu05146, KTC 0.2μM)?
The value was 1.187.

And the “enrichmentScore: Amoebiasis” value (GSEA KEGG mmu05146, KTC 0.2μM)?
The value was 0.3662.

What about the “NES: Hepatitis B” value (GSEA KEGG mmu05161, KTC 0.2μM) of the same compound?
Its value is 1.161.

What about the “enrichmentScore: Hepatitis B” value (GSEA KEGG mmu05161, KTC 0.2μM) of the same compound?
The value was 0.3151.

And the “NES: Human cytomegalovirus infection” value (GSEA KEGG mmu05163, KTC 0.2μM)?
The value was 1.262.

What about the “enrichmentScore: Human cytomegalovirus infection” value (GSEA KEGG mmu05163, KTC 0.2μM) of the same compound?
Its value is 0.333.

What about the “NES: Human T-cell leukemia virus 1 infection” value (GSEA KEGG mmu05166, KTC 0.2μM) of the same compound?
The value was 1.309.

And the “enrichmentScore: Human T-cell leukemia virus 1 infection” value (GSEA KEGG mmu05166, KTC 0.2μM)?
The value was 0.342.

What about the “NES: Kaposi sarcoma-associated herpesvirus infection” value (GSEA KEGG mmu05167, KTC 0.2μM) of the same compound?
The value was 1.355.

What about the “enrichmentScore: Kaposi sarcoma-associated herpesvirus infection” value (GSEA KEGG mmu05167, KTC 0.2μM) of the same compound?
The value was 0.3649.

What about the “NES: Herpes simplex virus 1 infection” value (GSEA KEGG mmu05168, KTC 0.2μM) of the same compound?
Its value is 1.765.

What about the “enrichmentScore: Herpes simplex virus 1 infection” value (GSEA KEGG mmu05168, KTC 0.2μM) of the same compound?
The value was 0.4327.

And the “NES: Transcriptional misregulation in cancer” value (GSEA KEGG mmu05202, KTC 0.2μM)?
The value was 1.705.

What about the “enrichmentScore: Transcriptional misregulation in cancer” value (GSEA KEGG mmu05202, KTC 0.2μM) of the same compound?
Its value is 0.4772.

What about the “NES: Proteoglycans in cancer” value (GSEA KEGG mmu05205, KTC 0.2μM) of the same compound?
Its value is 1.25.

And the “enrichmentScore: Proteoglycans in cancer” value (GSEA KEGG mmu05205, KTC 0.2μM)?
The value was 0.3314.

What about the “NES: Chemical carcinogenesis - reactive oxygen species” value (GSEA KEGG mmu05208, KTC 0.2μM) of the same compound?
Its value is -1.582.

What about the “enrichmentScore: Chemical carcinogenesis - reactive oxygen species” value (GSEA KEGG mmu05208, KTC 0.2μM) of the same compound?
The value was -0.3305.

What about the “NES: Prostate cancer” value (GSEA KEGG mmu05215, KTC 0.2μM) of the same compound?
The value was 1.478.

What about the “enrichmentScore: Prostate cancer” value (GSEA KEGG mmu05215, KTC 0.2μM) of the same compound?
Its value is 0.4248.

And the “NES: Basal cell carcinoma” value (GSEA KEGG mmu05217, KTC 0.2μM)?
The value was -1.6573.

And the “enrichmentScore: Basal cell carcinoma” value (GSEA KEGG mmu05217, KTC 0.2μM)?
Its value is -0.5057.

What about the “NES: Acute myeloid leukemia” value (GSEA KEGG mmu05221, KTC 0.2μM) of the same compound?
The value was 1.189.

What about the “enrichmentScore: Acute myeloid leukemia” value (GSEA KEGG mmu05221, KTC 0.2μM) of the same compound?
Its value is 0.3668.

And the “NES: Small cell lung cancer” value (GSEA KEGG mmu05222, KTC 0.2μM)?
Its value is 1.1778.

And the “enrichmentScore: Small cell lung cancer” value (GSEA KEGG mmu05222, KTC 0.2μM)?
Its value is 0.3365.

What about the “NES: Breast cancer” value (GSEA KEGG mmu05224, KTC 0.2μM) of the same compound?
Its value is 1.3909.

What about the “enrichmentScore: Breast cancer” value (GSEA KEGG mmu05224, KTC 0.2μM) of the same compound?
Its value is 0.3926.

And the “NES: Hepatocellular carcinoma” value (GSEA KEGG mmu05225, KTC 0.2μM)?
The value was -1.183.

And the “enrichmentScore: Hepatocellular carcinoma” value (GSEA KEGG mmu05225, KTC 0.2μM)?
The value was -0.2565.

And the “NES: Gastric cancer” value (GSEA KEGG mmu05226, KTC 0.2μM)?
The value was 1.191.

And the “enrichmentScore: Gastric cancer” value (GSEA KEGG mmu05226, KTC 0.2μM)?
Its value is 0.3347.

And the “NES: Central carbon metabolism in cancer” value (GSEA KEGG mmu05230, KTC 0.2μM)?
The value was -1.65.

And the “enrichmentScore: Central carbon metabolism in cancer” value (GSEA KEGG mmu05230, KTC 0.2μM)?
Its value is -0.4278.

What about the “NES: Inflammatory bowel disease” value (GSEA KEGG mmu05321, KTC 0.2μM) of the same compound?
Its value is 1.418.

What about the “enrichmentScore: Inflammatory bowel disease” value (GSEA KEGG mmu05321, KTC 0.2μM) of the same compound?
The value was 0.5282.

And the “NES: Rheumatoid arthritis” value (GSEA KEGG mmu05323, KTC 0.2μM)?
Its value is 1.449.

What about the “enrichmentScore: Rheumatoid arthritis” value (GSEA KEGG mmu05323, KTC 0.2μM) of the same compound?
Its value is 0.4777.

And the “NES: Hypertrophic cardiomyopathy” value (GSEA KEGG mmu05410, KTC 0.2μM)?
Its value is 1.341.

What about the “enrichmentScore: Hypertrophic cardiomyopathy” value (GSEA KEGG mmu05410, KTC 0.2μM) of the same compound?
The value was 0.4238.

And the “NES: Dilated cardiomyopathy” value (GSEA KEGG mmu05414, KTC 0.2μM)?
Its value is 1.501.

What about the “enrichmentScore: Dilated cardiomyopathy” value (GSEA KEGG mmu05414, KTC 0.2μM) of the same compound?
Its value is 0.4674.

And the “NES: Diabetic cardiomyopathy” value (GSEA KEGG mmu05415, KTC 0.2μM)?
Its value is -1.29.

What about the “enrichmentScore: Diabetic cardiomyopathy” value (GSEA KEGG mmu05415, KTC 0.2μM) of the same compound?
Its value is -0.2769.

And the “NES: Fluid shear stress and atherosclerosis” value (GSEA KEGG mmu05418, KTC 0.2μM)?
The value was -1.4518.

What about the “enrichmentScore: Fluid shear stress and atherosclerosis” value (GSEA KEGG mmu05418, KTC 0.2μM) of the same compound?
The value was -0.3333.

And the “NES, mmu00071 Fatty acid degradation” value (KTC1101 0.2μM, GSEA KEGG)?
Its value is 0.7528.

What about the “NES, mmu00310 Lysine degradation” value (KTC1101 0.2μM, GSEA KEGG) of the same compound?
Its value is -0.7398.

What about the “NES, mmu00380 Tryptophan metabolism” value (KTC1101 0.2μM, GSEA KEGG) of the same compound?
The value was 1.209.

And the “NES, mmu00500 Starch and sucrose metabolism” value (KTC1101 0.2μM, GSEA KEGG)?
Its value is -1.196.

What about the “NES, mmu00510 N-Glycan biosynthesis” value (KTC1101 0.2μM, GSEA KEGG) of the same compound?
The value was -0.6482.

And the “NES, mmu00513 Various types of N-glycan biosynthesis” value (KTC1101 0.2μM, GSEA KEGG)?
The value was 1.019.

What about the “NES, mmu00514 Other types of O-glycan biosynthesis” value (KTC1101 0.2μM, GSEA KEGG) of the same compound?
Its value is 1.221.

And the “NES, mmu00562 Inositol phosphate metabolism” value (KTC1101 0.2μM, GSEA KEGG)?
Its value is -1.021.

What about the “NES, mmu00564 Glycerophospholipid metabolism” value (KTC1101 0.2μM, GSEA KEGG) of the same compound?
Its value is -0.7177.

— paper PMC10938783, “A novel pan-PI3K inhibitor KTC1101 synergizes with anti-PD-1 therapy by targeting tumor suppression and immune activation” (Molecular Cancer, 2024)
